We go through 4 compounds from US20160009693A1, “HERBICIDAL COMPOUNDS” (SYNGENTA LIMITED, priority 2013, published 2016).

Type in all cases: in vivo
Holding throughout (conditions): applied at 1000 g/h, evaluated after 13 days

For assay [1], the system named is Solanum nigrum (SOLNI). Put plainly: Herbicidal glasshouse test, post-emergence, SOLNI.
The test system of assay [2] is Alopecurus myosuroides (ALOMY). Description: Herbicidal glasshouse test, post-emergence, ALOMY.
For assay [3], the system named is Solanum nigrum (SOLNI). Description: Herbicidal glasshouse test, pre-emergence, SOLNI. The method in brief: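 This pre-emergence glasshouse herbicide test used Solanum nigrum sown in standard soil. One day after sowing, pots were sprayed with the compound in acetone/water (50:50) with 0.5% Tween 20. They were then grown at 24/16° C., with 14 hours light and 65% humidity, and watered twice daily. Percentage damage was scored after 13 days on a five point scale, where 5=80-100% and 1=0-19%.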

Assay [4] deals with Setaria faberi (SETFA). Put plainly: Herbicidal glasshouse test, post-emergence, SETFA. The method in brief:
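This post-emergence glasshouse herbicide test used potted Setaria faberi. Plants were cultivated for 8 days under controlled conditions (24/16° C. day/night, 14 hours light, 65% humidity) and then treated with an aqueous spray made from an acetone/water (50:50) solution containing 0.5% Tween 20. After 13 days of further growth with twice-daily watering, damage was rated on a five point scale (5=80-100%; 1=0-19%).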

For assay [5], the system named is Ipomoea hederacea (IPOHE). Description: Herbicidal glasshouse test, pre-emergence, IPOHE.
Assay [6] concerns Amaranthus retoflexus (AMARE). Description: Herbicidal glasshouse test, pre-emergence, AMARE. In a few lines: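 This pre-emergence glasshouse herbicide test used Amaranthus retoflexus sown in standard soil. After one day of cultivation, an aqueous spray made from the technical ingredient in 50:50 acetone/water with 0.5% Tween 20 was applied. Pots stayed at 24/16° C., 14 hours light, 65% humidity, with twice-daily watering. Damage was rated on a five point scale (1=0-19% up to 5=80-100%).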

Assay [7] has as its system Ipomoea hederacea (IPOHE). Put plainly: Herbicidal glasshouse test, post-emergence, IPOHE.
The subject of assay [8] is Alopecurus myosuroides (ALOMY). Description: Herbicidal glasshouse test, pre-emergence, ALOMY.
In assay [9] the test system is Echinochloa crus-galli (ECHCG). Description: Herbicidal glasshouse test, post-emergence, ECHCG. In a few lines:
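In this post-emergence glasshouse test, barnyard grass (ECHCG) was cultivated for 8 days under controlled conditions (24/16° C. day/night, 14 hours light, 65% humidity). It was then sprayed with an aqueous solution of the technical compound in acetone / water (50:50) with 0.5% Tween 20. Plants were kept under the same conditions and watered twice daily. After 13 days, percentage damage was rated on a five point scale (5=80-100%; 1=0-19%).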

In assay [10] the test system is Echinochloa crus-galli (ECHCG). Description: Herbicidal glasshouse test, pre-emergence, ECHCG. The method in brief:
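In this pre-emergence glasshouse test, ECHCG seeds sown in pots of standard soil were sprayed one day after sowing with the test material in acetone/water (50:50) containing 0.5% Tween 20. Plants were kept at 24/16° C., 14 hours light, 65% humidity, and watered twice daily. Percentage damage was rated after 13 days on a 1–5 scale.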

Assay [11] has as its system Setaria faberi (SETFA). Description: Herbicidal glasshouse test, pre-emergence, SETFA.
The subject of assay [12] is Amaranthus retoflexus (AMARE). Put plainly: Herbicidal glasshouse test, post-emergence, AMARE. In a few lines:
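This post-emergence glasshouse test used AMARE plants raised in standard soil for 8 days under controlled conditions (24/16° C. day/night, 14 hours light, 65% humidity). Foliage was sprayed with formulated compound in acetone/water (50:50) containing 0.5% Tween 20. Plants were then watered twice daily, and after 13 days percentage damage was rated on a five point scale.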

For `Cn1nnnc1NC(=O)c1nn(C)c(=O)n(-c2cc(F)c(F)c(F)c2)c1=O` [Compound 1.044], the “POST Application SOLNI, percentage damage (five point scale)” value in the assay with Solanum nigrum (SOLNI) [1] was 5 (5=80-100%). Further, in [2], the “POST Application ALOMY, percentage damage (five point scale)” value is 5 (5=80-100%). For the same compound, in the assay on Solanum nigrum (SOLNI) [3], the “PRE Application SOLNI, percentage damage (five point scale)” value (from here on “PRE Application SOLNI, percentage damage”) is on record as 5 (5=80-100%). Further, in the assay on Setaria faberi (SETFA) [4], the “POST Application SETFA, percentage damage (five point scale)” value is 5 (5=80-100%). For the same compound, the “PRE Application IPOHE, percentage damage (five point scale)” value (shortened to “PRE Application IPOHE, percentage damage”) in [5] is 5 (5=80-100%). Also, in [6], the “PRE Application AMARE, percentage damage (five point scale)” value (“PRE Application AMARE, percentage damage” below) is 5 (5=80-100%). Besides, in assay [7], the “POST Application IPOHE, percentage damage (five point scale)” value is 5 (5=80-100%). The “PRE Application ALOMY, percentage damage (five point scale)” value (from here on “PRE Application ALOMY, percentage damage”) in assay [8] is listed as 5 (5=80-100%). In assay [9], the “POST Application ECHCG, percentage damage (five point scale)” value is 5 (5=80-100%). Also, in assay [10], the “PRE Application ECHCG, percentage damage (five point scale)” value (shortened to “PRE Application ECHCG, percentage damage”) is 5 (5=80-100%). The “PRE Application SETFA, percentage damage (five point scale)” value (“PRE Application SETFA, percentage damage” below) with Setaria faberi (SETFA) [11] is on record as 5 (5=80-100%). Moreover, the “POST Application AMARE, percentage damage (five point scale)” value in assay [12] was 5 (5=80-100%).
Take `CCc1ccc(-n2c(=O)c(C(=O)Nc3nnnn3C)nn(C)c2=O)cc1` [Compound 1.006]: the “POST Application SOLNI, percentage damage (five point scale)” value in the assay on Solanum nigrum (SOLNI) [1] is on record as 5 (5=80-100%). Also, the “POST Application ALOMY, percentage damage (five point scale)” value in assay [2] is recorded as 5 (5=80-100%). The “PRE Application SOLNI, percentage damage” value in the assay with Solanum nigrum (SOLNI) [3] is recorded as 5 (5=80-100%). Further, the “POST Application SETFA, percentage damage (five point scale)” value in the assay on Setaria faberi (SETFA) [4] was 5 (5=80-100%). Further, the “PRE Application IPOHE, percentage damage” value in assay [5] is 5 (5=80-100%). Besides, in [6], the “PRE Application AMARE, percentage damage” value is recorded as 5 (5=80-100%). For the same compound, in [7], the “POST Application IPOHE, percentage damage (five point scale)” value is listed as 5 (5=80-100%). For the same compound, the “PRE Application ALOMY, percentage damage” value in assay [8] is 5 (5=80-100%). In addition, the “POST Application ECHCG, percentage damage (five point scale)” value in [9] is on record as 5 (5=80-100%). Moreover, the “PRE Application ECHCG, percentage damage” value in assay [10] was 5 (5=80-100%). Also, in the assay on Setaria faberi (SETFA) [11], the “PRE Application SETFA, percentage damage” value was 5 (5=80-100%). In assay [12], the “POST Application AMARE, percentage damage (five point scale)” value is recorded as 5 (5=80-100%).
On to `CC(C)CCn1nc(C(=O)Nc2nnnn2C)c(=O)n(-c2cccc(F)c2)c1=O` [Compound 1.013], for which, in the assay with Solanum nigrum (SOLNI) [1], the “POST Application SOLNI, percentage damage (five point scale)” value is 5 (5=80-100%). In addition, the “POST Application ALOMY, percentage damage (five point scale)” value in assay [2] is recorded as 5 (5=80-100%). For the same compound, the “PRE Application SOLNI, percentage damage” value with Solanum nigrum (SOLNI) [3] is recorded as 3 (3=40-59%). In addition, in the assay on Setaria faberi (SETFA) [4], the “POST Application SETFA, percentage damage (five point scale)” value is on record as 3 (3=40-59%). For the same compound, the “PRE Application IPOHE, percentage damage” value in assay [5] was 2 (2=20-39%). Besides, the “PRE Application AMARE, percentage damage” value in assay [6] is on record as 2 (2=20-39%). Further, the “POST Application IPOHE, percentage damage (five point scale)” value in assay [7] is recorded as 4 (4=60-79%). For the same compound, the “PRE Application ALOMY, percentage damage” value in [8] is on record as 1 (1=0-19%). The “POST Application ECHCG, percentage damage (five point scale)” value in assay [9] was 1 (1=0-19%). Further, the “PRE Application ECHCG, percentage damage” value in assay [10] is on record as 1 (1=0-19%). For the same compound, in the assay with Setaria faberi (SETFA) [11], the “PRE Application SETFA, percentage damage” value is listed as 1 (1=0-19%). Moreover, the “POST Application AMARE, percentage damage (five point scale)” value in assay [12] was 2 (2=20-39%).
With `Cn1nnnc1NC(=O)c1nn(C)c(=O)n(CCC(F)(F)F)c1=O` [Compound 1.094], the “POST Application SOLNI, percentage damage (five point scale)” value in the assay on Solanum nigrum (SOLNI) [1] is listed as 5 (5=80-100%). Besides, the “POST Application ALOMY, percentage damage (five point scale)” value in [2] is 5 (5=80-100%). Also, the “PRE Application SOLNI, percentage damage” value with Solanum nigrum (SOLNI) [3] is recorded as 5 (5=80-100%). In the assay on Setaria faberi (SETFA) [4], the “POST Application SETFA, percentage damage (five point scale)” value is 5 (5=80-100%). Further, the “PRE Application IPOHE, percentage damage” value in [5] is reported as 5 (5=80-100%). Further, the “PRE Application AMARE, percentage damage” value in assay [6] is listed as 5 (5=80-100%). Besides, in assay [7], the “POST Application IPOHE, percentage damage (five point scale)” value was 5 (5=80-100%). Besides, the “PRE Application ALOMY, percentage damage” value in assay [8] is listed as 5 (5=80-100%). Besides, in assay [9], the “POST Application ECHCG, percentage damage (five point scale)” value was 5 (5=80-100%). Besides, the “PRE Application ECHCG, percentage damage” value in [10] is given as 5 (5=80-100%). In addition, the “PRE Application SETFA, percentage damage” value in the assay on Setaria faberi (SETFA) [11] was 5 (5=80-100%). The “POST Application AMARE, percentage damage (five point scale)” value in assay [12] was 5 (5=80-100%).
